# Values joined by “and” are separate entries in the source; they are usually repeats but may differ in a detail not shown here. Equal entries are not always repeated.
# Experiments:
# Format in all cases: in vivo
# [1] = tested on: MeCP2 KO mice; assay: Body weight gain, mouse model of Rett syndrome; conditions: CBDA 2 and 20 mg/kg i.p. daily, PND 28-66, FIG. 5
# Method: (§1) CBDA was administered daily at the dose of 2 or 20 mg/kg i.p. starting from PND 28 and the following signs were scored every other day: hindlimb clasping (indication of motor imbalance), tremor, gait (measure of coordination), breathing, mobility and general condition.
# (§2) The CBDA was dissolved in ethanol, cremophor and saline (1:1:18). Starting from PND 28, mice received a daily intraperitoneal injection of CBDA (or vehicle) at the dose of 2 or 20 mg/kg. Animals were then scored every other day to evaluate the effect of CBDA treatment on motor symptoms (hindlimb clasping, gait, mobility) as well as neurological signs and general conditions (breathing abnormalities, tremors and general condition) present in MeCP2 knockout (KO) mice.
# [2] = tested on: MeCP2 KO and WT mice; assay: Survival, mouse model of Rett syndrome
# Method: as §1, §2
# [3] = tested on: MeCP2 KO mice; assay: Symptom scoring, mouse model of Rett syndrome; conditions: chronic CBDA 2 and 20 mg/kg i.p., FIG. 7-9
# Method: as §1, §2
# Each of the six symptoms was scored from 0 to 2 (0 corresponds to the symptom being absent or the same as in the wild type (WT) animal; 1 when the symptom was present; 2 when the symptom was severe).
# Mobility: the mouse is observed when placed on bench, then when handled gently. 0=as WT. 1=reduced movement when compared with WT: extended freezing period when first placed on bench and longer periods spent immobile. 2=no spontaneous movement when placed on the bench; mouse can move in response to a gentle prod or a food pellet placed nearby.
# Gait: 0=as WT. […]
# [4] = tested on: Ube3am-/p+ (AS) mice; assay: Tail suspension test, mouse model of Angelman syndrome; conditions: CBDA 20 mg/kg i.p., vs AS vehicle, FIG. 15
# Method: Heterozygous mice with maternal deficiency of Ube3A (Ube3am−/p+) and wild type (Ube3am+/p+) were purchased from The Jackson Laboratory (Jackson code: B6.129S7-Ube3a tm1Alb/J) and maintained in a C57BL/6 background.
# Drugs were dissolved in 1:1:18 ethanol:cremophor:0.9% saline, for intraperitoneal (i.p.) administration. Drug treatment was performed daily for 35 days. CBDA was administered at 20 mg/kg.
# Tail suspension: The tail suspension test assesses depressive-like behaviour in mice. Mice were individually suspended by the tail on a horizontal bar (50 cm from floor) using adhesive tape placed approximately 4 cm from the tip of the tail. The duration of immobility was recorded in seconds over a period of 6 minutes by a time recorder. Immobility time was defined as the absence of escape-oriented behaviour.
smiles,measurement,setting,value
"C=C(C)[C@@H]1CCC(C)=C[C@H]1c1c(O)cc(CCCCC)c(C(=O)O)c1O [CBDA, Cannabidiolic acid]",body weight gain,[1],did not prevent the reduction in body weight
same,survival rate,"[2]; MeCP2 KO mice, chronic CBDA 20 mg/kg i.p., PND 67 (vehicle KO 57.14%), FIG. 6",85.14% and 85%
same,lethality,[2]; WT mice treated with CBDA (2 and 20 mg/kg i.p. daily),No lethality
same,"total symptom score (tremor, breathing, hindlimb clasping, gait, general condition, mobility)",[3],"partially improve these symptoms and decrease the total symptom score, however these data were not significant"
same,duration of immobility time,[4],significantly reduced the duration of immobility time

# From patent US12150927B2, “Use of cannabidiolic acid in the treatment of autism spectrum disorder and associated disorders” (GW Research Limited, priority 2016, dated 2024)
